Laboratory results published in PubChem BioAssay AID1918957 (Molecular Pharmacology Branch, DTP, NCI, 2023).
Several values for one entry are separate records, joined by “and”; a condition that tells them apart may be missing. Equal entries are not always repeated. Values belong to the compound of their own block, whether it stands above or below them.

Tested on: NCI-H1876 complex spheroid viability
Assay: Anticancer human tumor NCI-H1876 cell line growth inhibition [LSD1];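 further: spheroids exposed to compounds for one week before readout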;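 on viability, T/C: 100% = DMSO vehicle-treated spheroids so lower means fewer viable cells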
Conditions: for viability, T/C: stronger effect = lower value
Outline: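 Drug combinations with the LSD1 inhibitor iadademstat tested on tumor cells co-cultured as spheroids with endothelial cells and mesenchymal stem cells. Concentrations descended in half-log increments from clinical Cmax or 10 microM.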

[1] = curve of first compound, second compound 0.1 µM
[2] = curve of first compound, second compound 0.316 µM
[3] = curve of first compound, second compound 1 µM
[4] = curve of first compound, second compound 3.16 µM
[5] = curve of first compound, second compound 10 µM
[6] = second compound 0.1 µM, first compound 0.00949 µM
[7] = second compound 0.1 µM, first compound 0.03 µM
[8] = second compound 0.1 µM, first compound 0.0949 µM
[9] = second compound 0.1 µM, first compound 0.3 µM
[10] = second compound 0.1 µM, first compound 0.949 µM
[11] = second compound 0.1 µM, first compound 3 µM
[12] = second compound 0.316 µM, first compound 0.00949 µM
[13] = second compound 0.316 µM, first compound 0.03 µM
[14] = second compound 0.316 µM, first compound 0.0949 µM
[15] = second compound 0.316 µM, first compound 0.3 µM
[16] = second compound 0.316 µM, first compound 0.949 µM
[17] = second compound 0.316 µM, first compound 3 µM
[18] = second compound 1 µM, first compound 0.00949 µM
[19] = second compound 1 µM, first compound 0.03 µM
[20] = second compound 1 µM, first compound 0.0949 µM
[21] = second compound 1 µM, first compound 0.3 µM
[22] = second compound 1 µM, first compound 0.949 µM
[23] = second compound 1 µM, first compound 3 µM
[24] = second compound 3.16 µM, first compound 0.00949 µM
[25] = second compound 3.16 µM, first compound 0.03 µM
[26] = second compound 3.16 µM, first compound 0.0949 µM
[27] = second compound 3.16 µM, first compound 0.3 µM
[28] = second compound 3.16 µM, first compound 0.949 µM
[29] = second compound 3.16 µM, first compound 3 µM
[30] = second compound 10 µM, first compound 0.00949 µM
[31] = second compound 10 µM, first compound 0.03 µM
[32] = second compound 10 µM, first compound 0.0949 µM
[33] = second compound 10 µM, first compound 0.3 µM
[34] = second compound 10 µM, first compound 0.949 µM
[35] = second compound 10 µM, first compound 3 µM

SMILES: Cn1ncnc1C1c2n[nH]c(=O)c3cc(F)cc(c23)NC1c1ccc(F)cc1 (centres undefined) + NC1CC1c1ccc(-c2cccc(O)c2)cc1
IC50 [1]: > 100 nM | IC50 [2]: > 100 nM | IC50 [3]: > 100 nM | IC50 [4]: > 100 nM | IC50 [5]: > 100 nM | viability, T/C (second compound 0.1 µM, first compound 0.000316 µM): 112% | viability, T/C (second compound 0.1 µM, first compound 0.001 µM): 113% | viability, T/C (second compound 0.1 µM, first compound 0.00316 µM): 111% | viability, T/C (second compound 0.1 µM, first compound 0.01 µM): 97.9% | viability, T/C (second compound 0.1 µM, first compound 0.0316 µM): 92% | viability, T/C (second compound 0.1 µM, first compound 0.1 µM): 90% | viability, T/C (second compound 0.316 µM, first compound 0.000316 µM): 108% | viability, T/C (second compound 0.316 µM, first compound 0.001 µM): 106% | viability, T/C (second compound 0.316 µM, first compound 0.00316 µM): 110% | viability, T/C (second compound 0.316 µM, first compound 0.01 µM): 97.4% | viability, T/C (second compound 0.316 µM, first compound 0.0316 µM): 107% | viability, T/C (second compound 0.316 µM, first compound 0.1 µM): 90.1% | viability, T/C (second compound 1 µM, first compound 0.000316 µM): 108% | viability, T/C (second compound 1 µM, first compound 0.001 µM): 115% | viability, T/C (second compound 1 µM, first compound 0.00316 µM): 108% | viability, T/C (second compound 1 µM, first compound 0.01 µM): 106% | viability, T/C (second compound 1 µM, first compound 0.0316 µM): 96.2% | viability, T/C (second compound 1 µM, first compound 0.1 µM): 87.8% | viability, T/C (second compound 3.16 µM, first compound 0.000316 µM): 109% | viability, T/C (second compound 3.16 µM, first compound 0.001 µM): 110% | viability, T/C (second compound 3.16 µM, first compound 0.00316 µM): 102% | viability, T/C (second compound 3.16 µM, first compound 0.01 µM): 104% | viability, T/C (second compound 3.16 µM, first compound 0.0316 µM): 90.2% | viability, T/C (second compound 3.16 µM, first compound 0.1 µM): 92.9% | viability, T/C (second compound 10 µM, first compound 0.000316 µM): 107% | viability, T/C (second compound 10 µM, first compound 0.001 µM): 102% | viability, T/C (second compound 10 µM, first compound 0.00316 µM): 95.5% | viability, T/C (second compound 10 µM, first compound 0.01 µM): 96.7% | viability, T/C (second compound 10 µM, first compound 0.0316 µM): 89.7% | viability, T/C (second compound 10 µM, first compound 0.1 µM): 78.8%

SMILES: NS(=O)(=O)OCC1CC(n2ccc3c(NC4CCc5ccccc54)ncnc32)CC1O (centres undefined) + NC1CC1c1ccc(-c2cccc(O)c2)cc1
IC50 [1]: 84.6 nM | IC50 [2]: 94.3 nM | IC50 [3]: 78.2 nM | IC50 [4]: 130 nM | IC50 [5]: 187 nM | viability, T/C [6]: 93.3% | viability, T/C [7]: 58% | viability, T/C [8]: 52% | viability, T/C [9]: 45.5% | viability, T/C [10]: 44.5% | viability, T/C [11]: 37.4% | viability, T/C [12]: 82.4% | viability, T/C [13]: 59.1% | viability, T/C [14]: 50.6% | viability, T/C [15]: 45.8% | viability, T/C [16]: 42.8% | viability, T/C [17]: 38.4% | viability, T/C [18]: 86.6% | viability, T/C [19]: 56.8% | viability, T/C [20]: 49.4% | viability, T/C [21]: 47.2% | viability, T/C [22]: 41.3% | viability, T/C [23]: 38.3% | viability, T/C [24]: 91.1% | viability, T/C [25]: 63% | viability, T/C [26]: 53.6% | viability, T/C [27]: 46.7% | viability, T/C [28]: 39.9% | viability, T/C [29]: 36.2% | viability, T/C [30]: 87.2% | viability, T/C [31]: 73.6% | viability, T/C [32]: 55.5% | viability, T/C [33]: 45% | viability, T/C [34]: 38.6% | viability, T/C [35]: 30.9%

SMILES: Nc1ccn(C2OC(CO)C(O)C2(F)F)c(=O)n1 (centres undefined) + NC1CCC(NC2CC2c2ccccc2)CC1
IC50 [1]: 6.89 nM | IC50 [2]: 6.69 nM | IC50 [3]: 6.77 nM | IC50 [4]: 6.75 nM | IC50 [5]: 6.25 nM | viability, T/C (second compound 0.1 µM, first compound 0.000949 µM): 111% | viability, T/C (second compound 0.1 µM, first compound 0.003 µM): 101% | viability, T/C [6]: 30.3% | viability, T/C [7]: 22.3% | viability, T/C [8]: 22.9% | viability, T/C [9]: 10.8% | viability, T/C (second compound 0.316 µM, first compound 0.000949 µM): 104% | viability, T/C (second compound 0.316 µM, first compound 0.003 µM): 96% | viability, T/C [12]: 29.7% | viability, T/C [13]: 18.1% | viability, T/C [14]: 11.7% | viability, T/C [15]: 9.66% | viability, T/C (second compound 1 µM, first compound 0.000949 µM): 111% | viability, T/C (second compound 1 µM, first compound 0.003 µM): 96.7% | viability, T/C [18]: 30.3% | viability, T/C [19]: 18.6% | viability, T/C [20]: 12.1% | viability, T/C [21]: 11.3% | viability, T/C (second compound 3.16 µM, first compound 0.000949 µM): 110% | viability, T/C (second compound 3.16 µM, first compound 0.003 µM): 107% | viability, T/C [24]: 26.2% | viability, T/C [25]: 23.2% | viability, T/C [26]: 17.9% | viability, T/C [27]: 9.56% | viability, T/C (second compound 10 µM, first compound 0.000949 µM): 109% | viability, T/C (second compound 10 µM, first compound 0.003 µM): 90.8% | viability, T/C [30]: 26.4% | viability, T/C [31]: 23.5% | viability, T/C [32]: 17.8% | viability, T/C [33]: 10.5%

SMILES: COc1cc(C2c3cc4c(cc3C(OC3OC5COC(C)OC5C(O)C3O)C3COC(=O)C23)OCO4)cc(OC)c1O (centres undefined) + NC1CCC(NC2CC2c2ccccc2)CC1
IC50 [1]: 61.4 nM | IC50 [2]: 49.2 nM | IC50 [3]: 48.1 nM | IC50 [4]: 50.9 nM | IC50 [5]: 43.9 nM | viability, T/C [6]: 91.7% | viability, T/C [7]: 79.6% | viability, T/C [8]: 31.1% | viability, T/C [9]: 23.5% | viability, T/C [10]: 12.2% | viability, T/C [11]: 11.8% | viability, T/C [12]: 89% | viability, T/C [13]: 68.6% | viability, T/C [14]: 24.9% | viability, T/C [15]: 22.3% | viability, T/C [16]: 19.2% | viability, T/C [17]: 10.7% | viability, T/C [18]: 91.7% | viability, T/C [19]: 66.4% | viability, T/C [20]: 26% | viability, T/C [21]: 22% | viability, T/C [22]: 14.4% | viability, T/C [23]: 18.9% | viability, T/C [24]: 94.5% | viability, T/C [25]: 64.8% | viability, T/C [26]: 29.7% | viability, T/C [27]: 29.5% | viability, T/C [28]: 18.2% | viability, T/C [29]: 13.7% | viability, T/C [30]: 82.7% | viability, T/C [31]: 62.5% | viability, T/C [32]: 24.3% | viability, T/C [33]: 23.4% | viability, T/C [34]: 18.1% | viability, T/C [35]: 14.2%

IC50 (curve of compound): 2270 nM and 2070 nM
SMILES: CC1(C)CCC(CN2CCN(c3ccc(C(=O)NS(=O)(=O)c4ccc(NCC5CCOCC5)c([N+](=O)[O-])c4)c(Oc4cnc5[nH]ccc5c4)c3)CC2)=C(c2ccc(Cl)cc2)C1
viability, T/C (compound 0.0316 µM): 101% and 99.5% | viability, T/C (compound 0.1 µM): 101% and 94.4% | viability, T/C (compound 0.316 µM): 101% and 110% | viability, T/C (compound 1 µM): 95.4% and 107% | viability, T/C (compound 3.16 µM): 31.8% and 19.4% | viability, T/C (compound 10 µM): 9.13% and 6.87%

IC50 (curve of compound): 2.22 nM and 1.71 nM
SMILES: CC[C@@]1(O)C(=O)OCc2c1cc1n(c2=O)Cc2cc3c(CN(C)C)c(O)ccc3nc2-1
viability, T/C (compound 0.000316 µM): 94% and 106% | viability, T/C (compound 0.001 µM): 86.2% and 81.2% | viability, T/C (compound 0.00316 µM): 33.5% and 14.2% | viability, T/C (compound 0.01 µM): 27.7% and 10.6% | viability, T/C (compound 0.0316 µM): 19.8% and 6.98% | viability, T/C (compound 0.1 µM): 15.5% and 4.68%
